Reference: PubChem BioAssay AID1549 (Sanford-Burnham Center for Chemical Genomics, 2009)
Activity calls are given as the source filed them. No rule for the calls is given here.

Target: Influenza A virus M2 proton channel (A/TW/4845/1999 H1N1)
Assay: M2 proton channel binding, NMR based, influenza A virus H1N1 strain (AID 1549)
Conditions: NMR binding screen, M2 protein

Compound | Kd
O=C(O)C1CSC(c2cccnc2)N1 (stereo not given) | > 4 mM (inactive)
Cc1ccc(NC(=O)C2CCN(S(C)(=O)=O)CC2)cc1 | > 4 mM (inactive)
Cc1c(C)[n+]([O-])c(-c2ccc([N+](=O)[O-])cc2)n1O | > 4 mM (inactive)
CS(=O)(=O)Nc1nnc(Cc2ccccc2)s1 | > 4 mM (inactive)
c1cnc(N2CCNCC2)nc1 | > 4 mM (inactive)
O=c1ccn(Cc2ccccc2)c(=O)[nH]1 | > 4 mM (inactive)
COc1ccc(-c2c(C)n([O-])c(C)c(C)[n+]2=O)cc1 | > 4 mM (inactive)
COC(=O)c1scc(C)c1N | > 4 mM (inactive)
CCOC(=O)c1[nH]c(C)cc1C | > 4 mM (inactive)
COc1cccc2onc(N)c12 | > 4 mM (inactive)
COC(=O)C1Cc2ccccc2N1 (stereo not given) | > 4 mM (inactive)
CSc1cccc(NC(=O)c2c(Cl)cnn2C)c1 | > 4 mM (inactive)
C=CCSc1[nH]c(=O)cc(C)c1C(N)=O | > 4 mM (inactive)
Cc1nc(NCc2ccco2)nc2c1C(=O)CC(C)C2 (stereo not given) | > 4 mM (inactive)
CNC(=S)NCCN1CCOCC1 | > 4 mM (inactive)
CC(=O)Nc1nnc(-c2ccccc2)o1 | > 4 mM (inactive)
CSc1ncc(CO)n1Cc1ccccc1 | > 4 mM (inactive)
Cc1ccc(O)c(NC(=O)c2ccco2)c1 | > 4 mM (inactive)
COc1cc(C/C=C/c2ccccc2)c(OC)cc1O | > 4 mM (inactive)
O=c1cnnc(N2CCCCC2)[nH]1 | > 4 mM (inactive)
N#CCN1C(=O)c2ccccc2S1(=O)=O | > 4 mM (inactive)
O=C1CSC(c2ccccc2)N1 (stereo not given) | > 4 mM (inactive)
NCC1CN(Cc2ccccc2)CCO1 (stereo not given) | > 4 mM (inactive)

Compound | Kd
CCc1cccc(C)c1NC(=O)c1cc(C)oc1C | > 4 mM (inactive)
CC(=O)NN1C(=O)c2cccc3cccc(c23)C1=O | > 4 mM (inactive)
Nc1ccc(O)cn1 | > 4 mM (inactive)
Cc1ccc(C)n1CCN1CCNCC1 | > 4 mM (inactive)
O=C1O[C@H](C(O)CO)C(O)=C1O (stereo not given in full) | > 4 mM (inactive)
COc1cc(/C=C/C(=O)/C=C(O)/C=C/c2ccc(O)c(OC)c2)ccc1O | > 4 mM (inactive)
Nc1ncnc2c1ncn2C1O[C@H](COP(=O)(O)O)[C@@H](O)[C@H]1O (stereo not given in full) | > 4 mM (inactive)
Nc1ccc2c(C(F)(F)F)cc(=O)oc2c1 | > 4 mM (inactive)
Nc1ccc(N2CCOCC2)c(Cl)c1 | > 4 mM (inactive)
O=C(O)c1cn(-c2ccccc2)nc1-c1ccncc1 | > 4 mM (inactive)
Cc1cc(=O)cc(C)n1-c1ccccc1N | > 4 mM (inactive)
CC(=O)Nc1ccc(-c2ccc3nncn3n2)cc1 | > 4 mM (inactive)
Cc1cc(C)cc(C(=O)N2CCC(C(N)=O)CC2)c1 | > 4 mM (inactive)
CC1CN(C2=NCCN2)CC(C)O1 (stereo not given) | > 4 mM (inactive)
Cc1nc(-c2cnccn2)sc1C(=O)O | > 4 mM (inactive)
CC(=O)Nc1ccc(-c2cn3ccsc3n2)cc1 | > 4 mM (inactive)
COc1ccc(N2C(=N)C(C)(C)NC2=O)cc1 | > 4 mM (inactive)
O=C(O)CCCc1nc2ccccc2s1 | > 4 mM (inactive)
Cc1c(C(=O)NCc2ccccn2)oc2ccccc12 | > 4 mM (inactive)
O=C(NC(=S)NN1CCOCC1)c1cccs1 | > 4 mM (inactive)
O=c1c(O)c(-c2ccc(O)c(O)c2)oc2cc(O)ccc12 | > 4 mM (inactive)
COC(=O)Cc1cc(=O)n(-c2ccccc2)[nH]1 | > 4 mM (inactive)
O=C1C2CC=CCC2C(=O)N1c1ccccc1 (stereo not given) | > 4 mM (inactive)

Compound | Kd
CC1=CC(=O)CC(C)(C)C1(O)/C=C/C(C)=C\C(=O)O (stereo not given) | > 4 mM (inactive)
Fc1ccc(-c2n[nH]c(=S)n2CC2CCCO2)cc1 (stereo not given) | > 4 mM (inactive)
COC(=O)CSc1nnc(-c2ccc(C(=O)O)cc2)o1 | > 4 mM (inactive)
Cc1c(C(=O)O)cnn1-c1ccccc1 | > 4 mM (inactive)
C=CCc1cc(C(=O)N2CCCCC2)ccc1O | > 4 mM (inactive)
O=C(NCc1ccccc1)c1cnsn1 | > 4 mM (inactive)
CC(=O)NS(=O)(=O)c1ccc(C)cc1 | > 4 mM (inactive)
CCOc1ccc(N2C(=O)CCC2=O)cc1 | > 4 mM (inactive)
O=C1Nc2ccccc2C1C1(O)C(=O)Nc2ccc(F)cc21 (stereo not given) | > 4 mM (inactive)
CC(=O)Nc1ccc2c(c1)n(C)c(=O)n2C | > 4 mM (inactive)
Cc1cc(=O)[nH]c2ccccc12 | > 4 mM (inactive)
NC(=O)C1CCN(CC2CC=CCC2)CC1 (stereo not given) | > 4 mM (inactive)
CC1CCN(C(=O)c2ccc(NS(C)(=O)=O)cc2)CC1 | > 4 mM (inactive)
COc1cc(S(=O)(=O)Nc2cccnc2)ccc1F | > 4 mM (inactive)
Cc1cc(C)c(-c2cc(C(F)(F)F)no2)c(=O)[nH]1 | > 4 mM (inactive)
Cc1ccccc1NC(=O)CC1SC(N)=NC1=O (stereo not given) | > 4 mM (inactive)
O=C1CSC(=O)N1CN1CCOCC1 | > 4 mM (inactive)
Nc1cccc(NC(=O)c2cccs2)c1 | > 4 mM (inactive)
NC(=S)CN1CCCC1=O | > 4 mM (inactive)
COc1cc([C@@H]2c3cc4c(cc3[C@H](O)[C@H]3COC(=O)[C@H]23)OCO4)cc(OC)c1OC | > 4 mM (inactive)
COc1ccc(NC(=O)C(N)=O)cc1Cl | > 4 mM (inactive)
CCCCCc1c2c(cc(O)c1C(=O)O)OC(=O)c1c(cc(OC)cc1C(=O)CCCC)O2 | > 4 mM (inactive)
O=C(CSc1ncnc2ccccc12)NCCCO | > 4 mM (inactive)

Compound | Kd
O=C(/C=C1\SC(=O)NC1=O)NCc1ccccc1 | > 4 mM (inactive)
CN(C(N)=O)C1(C)CCS(=O)(=O)C1 (stereo not given) | > 4 mM (inactive)
CC(=O)Nc1ccc(NC(=O)/C=C\C(=O)O)cc1 | > 4 mM (inactive)
CC(=O)NC1C(=O)Nc2c(C)cc(C)cc21 (stereo not given) | > 4 mM (inactive)
O=C(Nc1ccccc1)C(=O)NC1CC1 | > 4 mM (inactive)
COc1cc(OC)c(-c2c(OC)cc(OC)cc2OC)c(OC)c1 | > 4 mM (inactive)
Cc1cc(F)c(F)c(C(=O)NC2CC2)c1Cl | > 4 mM (inactive)
CC1=NNC(=O)C1CCc1ccncc1 (stereo not given) | > 4 mM (inactive)
O=C1CNC(=O)N1Cc1ccc(Br)cc1 | > 4 mM (inactive)
CC(=O)N(c1ccccc1)C1C=CS(=O)(=O)C1 (stereo not given) | > 4 mM (inactive)
CCOc1ccc(C)cc1S(=O)(=O)n1ccnc1 | > 4 mM (inactive)
O=c1[nH]c2c(c(=O)n1C1CCCCC1)CCC2 | > 4 mM (inactive)
Cc1noc(C)c1C(=O)N1CCc2ccccc2C1 | > 4 mM (inactive)
CN(C)c1n[nH]c(=O)[nH]c1=O | > 4 mM (inactive)
N=c1c2c3c(sc2ncn1N)CCCC3 | > 4 mM (inactive)
O=C(O)c1ccnn1-c1ccccc1 | > 4 mM (inactive)
CC(=O)NC(=S)Nc1ccccc1C | > 4 mM (inactive)
Cc1cc(C)n(-c2ccc(N)cc2)n1 | > 4 mM (inactive)
O=C1NC(=O)/C(=C\c2ccco2)S1 | > 4 mM (inactive)
COc1cccc(-c2nc3ccc(O)cc3c(=O)o2)c1 | > 4 mM (inactive)
Cn1c(=O)[nH]c(=O)c2c1ncn2CCN1CCCCC1 | > 4 mM (inactive)
